Test results published in ChEMBL document CHEMBL1142712, “Identification of small molecule chemical inhibitors of the collagen-specific chaperone Hsp47” (J Med Chem, 2005).

Target: T1, Serpin H1 (Homo sapiens, UniProt P50454)
T1 sequence (P50454 whole entry): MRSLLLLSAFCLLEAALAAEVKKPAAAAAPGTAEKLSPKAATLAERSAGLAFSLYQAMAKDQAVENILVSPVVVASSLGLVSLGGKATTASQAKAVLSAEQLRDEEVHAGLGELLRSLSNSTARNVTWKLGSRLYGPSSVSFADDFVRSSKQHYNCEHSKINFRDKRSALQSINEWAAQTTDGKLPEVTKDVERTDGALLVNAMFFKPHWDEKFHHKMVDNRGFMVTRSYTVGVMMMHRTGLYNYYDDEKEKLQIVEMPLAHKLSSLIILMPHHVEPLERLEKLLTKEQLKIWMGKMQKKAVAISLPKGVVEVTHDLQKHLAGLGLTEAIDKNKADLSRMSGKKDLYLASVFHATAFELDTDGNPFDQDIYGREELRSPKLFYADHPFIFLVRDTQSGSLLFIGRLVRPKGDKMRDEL
Assay: Inhibitory concentration against Hsp47 collagen chaperone in turbidity assay

IC50	Compound
26.6 µM	Nc1ccc(SC(C[N+](=O)[O-])c2ccc(F)cc2)cc1 (centres undefined)
3.1 µM	COC(=O)c1cc(Cl)cc2c1N[S+]([O-])S2 (centres undefined)
26.6 µM	COc1ccc(C(C[N+](=O)[O-])Sc2ccc(N)cc2)cc1 (centres undefined)
6.3 µM	Cc1cc(C(=O)CSc2nc(O)c(C#N)c(-c3cccs3)n2)ccc1Cl
